This passage reports dandruff removal results from patent publication US7041636B1, “Composition for counteracting hair loss” (priority 2004, dated 2006).

This assay deals with dandruff. Description: dandruff removal trials, topical application before shampooing. The format is in vivo. The settings on record: series of trials on subjects; applied twenty minutes before shampooing. From the text:
The author of the present inventions has engaged in research, and experimentation in the field of hair care products for a number of years. As a dandruff treatment, they investigated the use of polysorbate 80, procured from the Nourishair Company in the form of a thick gel. […] Based on this experience, they used the product on a number of subjects over a period of ten years. For antiseptic purposes and tactile response, they subsequently decided to add an amount of menthol to the polysorbate 80.

As to polysorbate 60, the dandruff removal entry is listed as “worked well”. As for polysorbate 80, the dandruff removal result was “worked well”.
